Experimental data taken from patent US9617225B2 (VIROSTATICS SRL, priority 2012, dated 2017).
Read-outs that look alike come from different tables or passages of the source.

Columns and labels:
Primary T cells [1] = assay: Cytotoxicity, viability by flow cytometry; assay type: cell-based
Description: Primary T cells are cultured and treated with different concentrations of the test compound. Viability is analysed by measuring through flow cytometry based techniques the percentage of viable cells, compared to untreated control=100%).

[2] = biological target: human CDK9/CyclinT kinase complex (Homo sapiens (Human), UniProt P50750); assay: In Vitro CDK9/CyclinT Assay (IMAP fluorescent polarization); assay type: biochemical
human CDK9/CyclinT kinase complex, sequence (P50750 whole entry): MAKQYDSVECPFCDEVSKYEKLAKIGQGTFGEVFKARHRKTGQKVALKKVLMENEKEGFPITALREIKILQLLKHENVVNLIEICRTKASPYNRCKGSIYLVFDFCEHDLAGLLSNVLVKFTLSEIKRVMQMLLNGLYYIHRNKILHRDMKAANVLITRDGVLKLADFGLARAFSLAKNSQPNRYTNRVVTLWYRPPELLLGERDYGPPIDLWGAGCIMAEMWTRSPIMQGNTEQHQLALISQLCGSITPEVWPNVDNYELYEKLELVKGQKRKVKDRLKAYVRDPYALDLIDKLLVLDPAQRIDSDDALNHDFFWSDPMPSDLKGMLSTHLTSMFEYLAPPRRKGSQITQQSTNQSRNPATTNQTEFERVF
human CDK9/CyclinT kinase complex, sequence (O60563 whole entry partner): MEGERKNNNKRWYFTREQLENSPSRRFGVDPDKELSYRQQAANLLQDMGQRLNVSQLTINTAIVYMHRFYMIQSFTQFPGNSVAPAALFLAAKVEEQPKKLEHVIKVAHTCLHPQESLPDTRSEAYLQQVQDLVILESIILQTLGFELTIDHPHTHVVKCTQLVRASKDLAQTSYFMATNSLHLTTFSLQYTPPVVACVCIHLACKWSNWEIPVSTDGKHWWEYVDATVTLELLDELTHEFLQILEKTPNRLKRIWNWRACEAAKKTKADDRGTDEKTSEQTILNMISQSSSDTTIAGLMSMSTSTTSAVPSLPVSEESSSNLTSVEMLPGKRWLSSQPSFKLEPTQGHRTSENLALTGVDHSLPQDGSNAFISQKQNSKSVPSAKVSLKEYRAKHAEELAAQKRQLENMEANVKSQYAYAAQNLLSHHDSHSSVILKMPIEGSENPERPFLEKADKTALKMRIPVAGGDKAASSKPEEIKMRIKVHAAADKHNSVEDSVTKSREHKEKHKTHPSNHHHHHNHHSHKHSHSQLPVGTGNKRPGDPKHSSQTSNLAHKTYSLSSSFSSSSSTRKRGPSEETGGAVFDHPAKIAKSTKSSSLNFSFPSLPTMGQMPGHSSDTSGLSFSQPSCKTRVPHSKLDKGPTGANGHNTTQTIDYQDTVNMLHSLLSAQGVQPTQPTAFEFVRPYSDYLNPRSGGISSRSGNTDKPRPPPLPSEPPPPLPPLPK
Summary of the method: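 Phosphorylation of 400 nM TAMRA-Rbtide (15-mer retinoblastoma-derived peptide) by 5 nM CDK9/CyclinT with 12 μM ATP (=Kmapp) in 20 mM MOPS pH 7, 1 mM DTT, 10 mM MgCl2, 0.01% Tween 20. Reaction run 1 hour at room temperature, stopped with IMAP beads; read by fluorescence polarization.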

[3] = test system: laboratory strain of HIV-1; assay: Antiviral Activity Against HIV (AV), p24 in infected activated primary T cells; assay type: cell-based; conditions: for antiviral and antiproliferative activity and cytotoxicity profile: summary in words
Description: Antiviral Activity Against HIV (AV)
Activated primary T cells are infected with a laboratory strain of HIV-1, then cultured and exposed to different concentrations of the test compounds. HIV replication is analysed by measuring the viral protein p24 and expressed as percentage of untreated control. Inhibition of viral replication (AV) is then calculated (AV=100 minus the % p24 compared to control, AV of control=0%). Inhibitory concentration 50% for antiviral activity (AV50) is calculated.

Primary T cells [4] = assay: Antiproliferative Activity (AP), mitotic index by flow cytometry; assay type: cell-based; conditions: T-cell, read-out: AP50 (μM)
Description: Antiproliferative Activity (AP)
Primary T cells are cultured and exposed to different concentrations of the test compounds. Cell proliferation is analysed by measuring mitotic index (ie the number of cell divisions a population of cells undergoes) through flow cytometry based techniques. Mitotic index is expressed as percentage of untreated control. Inhibition of cell proliferation (AP) is then calculated (AP=100 minus % mitotic index compared to control, AP of control=0%). Inhibitory concentration 50% for antiproliferative capacity (AP50) is calculated.

SMILES: CNCc1cc(Nc2cc(-c3ccccc3OC)ncn2)ccc1OC [Example 37, N-(4-Methoxy-3-((methylamino)methyl)phenyl)-6-(2-methoxyphenyl)pyrimidin-4-amine]
- TD50 (Primary T cells [1]): 2 µM
- IC50 ([2]; Table 1): < 100 nM
- IC50 ([3]; Human immunodeficiency virus 1, T-cell, read-out: AV50 (μM)): > 1.5 µM
- IC50 (Primary T cells [4]): 2 µM

SMILES: CCOc1ccc(F)cc1-c1cc(Nc2ccc(OC)c(C(N)=O)c2)ncn1 [Example 131, 5-[6-(2-Ethoxy-5-fluoro-phenyl)-pyrimidin-4-ylamino]-2-methoxy-benzamide]
- TD50 (Primary T cells [1]): 2 µM
- IC50 ([2]; Table 1): < 1000 nM
- antiviral and antiproliferative activity and cytotoxicity profile [3]: good antiviral and antiproliferative activity and a good cytotoxicity profile

SMILES: CNC(=O)c1ccc(Nc2cc(-c3ccccc3OC)ncn2)cc1OC [Example 134, 2-Methoxy-4-[6-(2-methoxy-phenyl)-pyrimidin-4-ylamino]-N-methyl-benzamide]
- TD50 (Primary T cells [1]): >10 µM
- IC50 ([2]; Table 1): < 1000 nM
- IC50 ([2]; Table 5): < 1000 nM
- IC50 ([3]; read-out: AV50, Table 5): > 10 µM

SMILES: COc1cc(Nc2cc(-c3ccccc3OC)ncn2)ccc1C(N)=O [Example 136, 2-Methoxy-4-[6-(2-methoxy-phenyl)-pyrimidin-4-ylamino]-benzamide]
- TD50 (Primary T cells [1]): >2 µM
- IC50 ([2]; Table 1): < 1000 nM
- IC50 ([2]; Table 5): < 1000 nM
- IC50 ([3]; read-out: AV50, Table 5): > 2 µM

SMILES: CCOc1ccccc1-c1cc(Nc2cc(F)c(OC)c(C(N)=O)c2)ncn1 [Example 141, 5-[6-(2-Ethoxy-phenyl)-pyrimidin-4-ylamino]-3-fluoro-2-methoxy-benzamide]
- TD50 (Primary T cells [1]): >20 µM
- IC50 ([2]; Table 1): < 1000 nM
- antiviral and antiproliferative activity and cytotoxicity profile [3]: good antiviral and antiproliferative activity and a good cytotoxicity profile

SMILES: CCOc1ccc(F)cc1-c1cc(Nc2cc(F)c(OC)c(C(N)=O)c2)ncn1 [Example 142, 5-[6-(2-Ethoxy-5-fluoro-phenyl)-pyrimidin-4-ylamino]-3-fluoro-2-methoxy-benzamide]
- TD50 (Primary T cells [1]): >20 µM
- IC50 [2]: < 1000 nM
- antiviral and antiproliferative activity and cytotoxicity profile [3]: good antiviral and antiproliferative activity and a good cytotoxicity profile

SMILES: COc1cc(F)c(Nc2cc(-c3ccccc3OC)ncn2)cc1C(N)=O [Example 143, 4-Fluoro-2-methoxy-5-[6-(2-methoxy-phenyl)-pyrimidin-4-ylamino]-benzamide]
- TD50 (Primary T cells [1]): 15 µM
- IC50 [2]: < 1000 nM
- antiviral and antiproliferative activity and cytotoxicity profile [3]: good antiviral and antiproliferative activity and a good cytotoxicity profile

SMILES: COc1cc(F)c(Nc2cc(-c3cc(F)ccc3OC)ncn2)cc1C(N)=O [Example 144, 4-Fluoro-5-[6-(5-fluoro-2-methoxy-phenyl)-pyrimidin-4-ylamino]-2-methoxy-benzamide]
- TD50 (Primary T cells [1]): 12 µM
- IC50 [2]: < 1000 nM
- antiviral and antiproliferative activity and cytotoxicity profile [3]: good antiviral and antiproliferative activity and a good cytotoxicity profile

SMILES: CCOc1ccccc1-c1cc(Nc2cc(C(N)=O)c(OC)cc2F)ncn1 [Example 145, 5-[6-(2-Ethoxy-phenyl)-pyrimidin-4-ylamino]-4-fluoro-2-methoxy-benzamide]
- TD50 (Primary T cells [1]): 15 µM
- IC50 [2]: < 1000 nM
- antiviral and antiproliferative activity and cytotoxicity profile [3]: good antiviral and antiproliferative activity and a good cytotoxicity profile

SMILES: COc1cc(F)c(Nc2cc(-c3ccc(F)cc3OC)ncn2)cc1C(N)=O [Example 146, 4-Fluoro-5-[6-(4-fluoro-2-methoxy-phenyl)-pyrimidin-4-ylamino]-2-methoxy-benzamide]
- TD50 (Primary T cells [1]): 10 µM
- IC50 ([2]; Table 1): < 1000 nM
- antiviral and antiproliferative activity and cytotoxicity profile [3]: good antiviral and antiproliferative activity and a good cytotoxicity profile

SMILES: CCOc1cc(F)ccc1-c1cc(Nc2cc(C(N)=O)c(OC)cc2F)ncn1 [Example 147, 5-[6-(2-Ethoxy-4-fluoro-phenyl)-pyrimidin-4-ylamino]-4-fluoro-2-methoxy-benzamide]
- TD50 (Primary T cells [1]): 15 µM
- IC50 [2]: < 1000 nM
- antiviral and antiproliferative activity and cytotoxicity profile [3]: good antiviral and antiproliferative activity and a good cytotoxicity profile
